Experiments:
GdpP (rGdpP) [1] = target: T1, GdpP (rGdpP) (Staphylococcus aureus, UniProt Q2G2T6); experiment: TLC of […]c-di-AMP hydrolysis to pApA, dose-response fit; type: biochemical
T1 construct: gene SAOUHSC_00015; residues 84-655, N-terminal transmembrane helices removed
T1 sequence (Q2G2T6 84-655): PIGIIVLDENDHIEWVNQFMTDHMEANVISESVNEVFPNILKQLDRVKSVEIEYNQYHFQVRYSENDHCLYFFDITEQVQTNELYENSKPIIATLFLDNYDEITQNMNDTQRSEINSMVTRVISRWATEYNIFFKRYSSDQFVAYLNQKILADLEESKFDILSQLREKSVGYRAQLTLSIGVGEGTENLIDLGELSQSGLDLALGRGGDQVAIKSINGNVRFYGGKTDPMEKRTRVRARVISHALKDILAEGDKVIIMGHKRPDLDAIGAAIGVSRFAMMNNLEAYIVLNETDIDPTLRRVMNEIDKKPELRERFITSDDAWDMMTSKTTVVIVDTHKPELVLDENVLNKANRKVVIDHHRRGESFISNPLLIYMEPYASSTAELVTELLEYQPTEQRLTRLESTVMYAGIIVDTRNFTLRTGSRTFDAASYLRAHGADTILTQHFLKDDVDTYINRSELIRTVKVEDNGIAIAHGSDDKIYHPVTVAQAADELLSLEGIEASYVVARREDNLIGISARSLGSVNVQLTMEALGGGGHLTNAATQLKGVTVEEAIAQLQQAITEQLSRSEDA

GdpP (rGdpP) [2] = target: T1, GdpP (rGdpP); experiment: TLC of radiolabelled c-di-AMP hydrolysis to pApA; type: biochemical; details: labelled compound; 20 μM c-di-AMP, 1 μM enzyme, 50 mM Tris pH 8.5, 0.1 mM MnCl2, 20 mM KCl, room temperature, no ppGpp

| SMILES | Ki (GdpP (rGdpP) [1]) [µM] | % pApA formation (GdpP (rGdpP) [2]) |
| --- | --- | --- |
| Nc1nc2c(ncn2[C@@H]2O[C@H](COP(=O)(O)OP(=O)(O)O)[C@@H](OP(=O)(O)OP(=O)(O)O)[C@H]2O)c(=O)[nH]1 [ppGpp] | 130 ± 42.8 |  |
| Nc1ncnc2c1ncn2[C@@H]1O[C@@H]2COP(=O)(O)O[C@H]3[C@@H](O)[C@H](n4cnc5c(N)ncnc54)O[C@@H]3COP(=O)(O)O[C@H]2[C@H]1O [c-di-AMP] |  | rGdpP was able to efficiently hydrolyze c-di-AMP in the absence of ppGpp |

Source: PMC4342491, “Cross-talk between Two Nucleotide-signaling Pathways in Staphylococcus aureus” (The Journal of Biological Chemistry, 2015)
